We go through eleven molecules from PubChem BioAssay (NCI).

Among the test systems are UO-31 renal; ACHN renal; BT-549 breast; CCRF-CEM leukemia; U251 CNS; SK-OV-3 ovarian; NCI-H23 lung; IGROV1 ovarian.
What all share (assay): inhibition of tumour cell growth, NCI panel, 48 h

“And” between values parts separate entries of the source, which are not always exact repeats. Identical values can stand only once.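 A five-concentration, 48-hour dose response in 96-well plates underlies each endpoint, interpolated linearly between surrounding concentrations. Abbreviation: GI50, concentration required for 50% inhibition of growth. Definition used: TGI = concentration required for complete inhibition of growth.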 Bounds are passed on as bounds.

Regarding `CC12CCC(=O)C(O1)C1C(=O)c3cc4ccccc4cc3C(=O)C12` (centres undefined), the GI50 in the assay with UO-31 renal is 42.5 µM; with ACHN renal, 15.8 µM; in the assay on BT-549 breast it was 23.7 µM; in the assay on CCRF-CEM leukemia it was 11.4 µM; in the assay with U251 CNS, 19 µM; in the assay with SK-OV-3 ovarian, 46.6 µM. Moreover, the GI50 was 15.8 µM with NCI-H23 lung and 23.9 µM in the assay on IGROV1 ovarian. Besides, the TGI with UO-31 renal is > 100 µM; in the assay with ACHN renal it was 31.1 µM; in the assay on BT-549 breast it was 58.6 µM; in the assay with CCRF-CEM leukemia it was 31 µM; in the assay on U251 CNS, 43.7 µM; with SK-OV-3 ovarian, > 100 µM. In addition, the TGI is 31.6 µM in the assay on NCI-H23 lung and > 100 µM in the assay on IGROV1 ovarian.
`CC1=CC(=O)c2c(O)cccc2C1=O`: the TGI in the assay on UO-31 renal came to 2.98 µM; with ACHN renal it was 3.01 µM; in the assay with BT-549 breast, 3.15 µM; in the assay on CCRF-CEM leukemia it was 0.621 µM; in the assay on U251 CNS, 20.4 µM; with SK-OV-3 ovarian, 27.2 µM. Besides, the TGI in the assay with NCI-H23 lung worked out at 3.47 µM; in the assay on IGROV1 ovarian it was 3.33 µM.
Turning to `c1ccc2nc(Cn3c[n+](Cc4ccc5ccccc5n4)c4ccccc43)ccc2c1`, the GI50 in the assay with UO-31 renal is 7.08 µM; in the assay with ACHN renal it was 14.6 µM; in the assay with BT-549 breast it was 1.95 µM; in the assay on CCRF-CEM leukemia it was 3.47 µM; in the assay with U251 CNS it was 3.08 µM; in the assay on SK-OV-3 ovarian it was 3.03 µM. Also, the values for the GI50 in the assay on NCI-H23 lung and with IGROV1 ovarian were 1.47 µM and 1.65 µM, respectively. In addition, the TGI with UO-31 renal was found to be 21.7 µM; in the assay with ACHN renal it was 31.1 µM; with BT-549 breast, 6.5 µM; in the assay with CCRF-CEM leukemia it was 21 µM; in the assay on U251 CNS it was 12.8 µM; with SK-OV-3 ovarian it was 11.3 µM. In addition, the TGI with NCI-H23 lung came out at 10.3 µM; in the assay on IGROV1 ovarian, 8.27 µM.
As to `CCN1C(=O)N(CC)C2C1NN=c1s/c(=C3\C(=O)N(C(C)C)c4ccccc43)c(=O)n12` (centres undefined), the GI50 with UO-31 renal is 0.636 µM; in the assay on ACHN renal it was 0.525 µM; in the assay on BT-549 breast, 1.38 µM; in the assay on CCRF-CEM leukemia, 0.377 µM; in the assay on U251 CNS it was 0.378 µM; with SK-OV-3 ovarian, 0.403 µM. The GI50 in the assay with NCI-H23 lung was 0.421 µM; with IGROV1 ovarian, 0.586 µM. Moreover, the TGI in the assay with UO-31 renal is > 100 µM; in the assay with ACHN renal, > 42.2 µM; in the assay on BT-549 breast, 66.4 µM; in the assay on CCRF-CEM leukemia, > 100 µM; in the assay on U251 CNS, > 57.7 µM; in the assay with SK-OV-3 ovarian, 12.1 µM. Moreover, the TGI in the assay with NCI-H23 lung was 30.5 µM; in the assay with IGROV1 ovarian, > 100 µM.
With `Cc1ccc(C(=O)Nc2ccc(S(=O)(=O)O)c3cc(S(=O)(=O)O)cc(S(=O)(=O)O)c23)cc1NC(=O)c1cccc(N)c1`, the TGI with UO-31 renal, in the assay with ACHN renal, in the assay on BT-549 breast, in the assay with CCRF-CEM leukemia, in the assay with U251 CNS and in the assay on SK-OV-3 ovarian was > 100 µM in each case. Besides, the TGI in the assay with NCI-H23 lung and in the assay with IGROV1 ovarian was > 100 µM throughout.
For the molecule `O=C(O)CS(=O)(=O)C(c1ccccc1)c1ccccc1`, the TGI in the assay on UO-31 renal, with ACHN renal, with BT-549 breast, with CCRF-CEM leukemia, with U251 CNS and in the assay with SK-OV-3 ovarian was > 100 µM each time. The TGI in the assay on NCI-H23 lung and in the assay with IGROV1 ovarian was > 100 µM throughout.
For `CC12CCC=CC1CCC1C2CCC2(C)C(c3ccc(=O)oc3)CCC12O` (centres undefined), the GI50 with UO-31 renal is 0.0647 µM; in the assay with ACHN renal it was 0.0297 µM; with BT-549 breast it was 0.0391 µM; in the assay on CCRF-CEM leukemia, 0.0364 µM; in the assay on U251 CNS it was 0.131 µM; in the assay with SK-OV-3 ovarian, 0.218 µM. Also, the figures for the GI50 in the assay on NCI-H23 lung and in the assay with IGROV1 ovarian were 0.0492 µM and 0.0688 µM, respectively. Also, the TGI in the assay with UO-31 renal came out at 0.189 µM; with ACHN renal, 0.128 µM; in the assay with BT-549 breast it was 0.436 µM; in the assay with CCRF-CEM leukemia it was 0.544 µM; in the assay with U251 CNS, 0.419 µM; in the assay on SK-OV-3 ovarian it was 0.641 µM. The figures for the TGI with NCI-H23 lung and with IGROV1 ovarian were 0.302 µM and 1.36 µM, respectively.
For the molecule `N#CC(C#N)=Cc1ccc(-c2ccc(-c3nc4ccccc4s3)cc2)o1`, the GI50 was 20.3 µM with UO-31 renal; 18.5 µM in the assay with ACHN renal; 32.9 µM in the assay with BT-549 breast; 4.15 µM in the assay with CCRF-CEM leukemia; 12 µM with U251 CNS; 10 µM in the assay on SK-OV-3 ovarian. The GI50 with NCI-H23 lung is 15.6 µM; with IGROV1 ovarian, 3.7 µM. The TGI was > 100 µM in the assay with UO-31 renal; > 100 µM in the assay with ACHN renal; 96.1 µM in the assay with BT-549 breast; 70.6 µM with CCRF-CEM leukemia; 24.8 µM in the assay with U251 CNS; 35.4 µM with SK-OV-3 ovarian. Further, the TGI in the assay with NCI-H23 lung amounted to 43.3 µM; in the assay with IGROV1 ovarian, 56.3 µM.
As for `Nc1ncnc2sc(=S)c3c(c12)CCC3`, the GI50 in the assay on UO-31 renal is 43.8 µM; in the assay on ACHN renal it was 26.3 µM; in the assay on BT-549 breast, 22.5 µM; with CCRF-CEM leukemia it was 27.1 µM; with U251 CNS, 45.8 µM; with SK-OV-3 ovarian, 89 µM. For the same molecule, the values for the GI50 in the assay with NCI-H23 lung and in the assay with IGROV1 ovarian were 21.1 µM and 50.5 µM, respectively. Moreover, the TGI with UO-31 renal was > 100 µM; with ACHN renal it was > 100 µM; in the assay on BT-549 breast, 68.2 µM; in the assay on CCRF-CEM leukemia it was 79.5 µM; with U251 CNS it was > 100 µM; in the assay on SK-OV-3 ovarian, > 100 µM. In addition, the values for the TGI in the assay with NCI-H23 lung and in the assay on IGROV1 ovarian were 56.8 µM and > 100 µM, respectively.
For `O=C(O)CSSCC(=O)O`, the TGI in the assay with UO-31 renal, in the assay with ACHN renal, in the assay with BT-549 breast, in the assay with CCRF-CEM leukemia, with U251 CNS and in the assay with SK-OV-3 ovarian was > 100 µM in each case. Also, the TGI in the assay on NCI-H23 lung and with IGROV1 ovarian was > 100 µM each time.
As for `O=C(Nc1cccc(Cl)c1)Nc1ncc(CCNc2ncnc3ccsc23)s1`, the GI50 in the assay with UO-31 renal was 6.01 µM and 3.22 µM; in the assay with ACHN renal it was 2.3 µM and 2.06 µM; in the assay with BT-549 breast, 2.07 µM and 1.68 µM; with CCRF-CEM leukemia, < 0.01 µM and 0.00391 µM; in the assay with U251 CNS, 4.68 µM and 2.16 µM; in the assay with SK-OV-3 ovarian, 9.12 µM and 4.86 µM. Also, the GI50 with NCI-H23 lung is 2.08 µM and 2.49 µM; with IGROV1 ovarian, 7.43 µM and 3.6 µM. Further, the TGI in the assay with UO-31 renal is 28.7 µM and > 10 µM; in the assay with ACHN renal it was 16.8 µM and > 10 µM; in the assay with BT-549 breast, 11.8 µM and 7.75 µM; in the assay on CCRF-CEM leukemia, > 100 µM; in the assay on U251 CNS it was > 45.7 µM; in the assay with SK-OV-3 ovarian it was 24.1 µM and > 10 µM. Moreover, the TGI is 20.1 µM and > 10 µM with NCI-H23 lung; 44.1 µM and > 10 µM in the assay with IGROV1 ovarian.
